These results are taken from patent US11345678B2, “Benzopyrazole compound used as RHO kinase inhibitor” (MEDSHINE DISCOVERY INC., priority 2018, dated 2022).

As usually defined, the IC50 is the concentration at which inhibition is half-maximal. A lower IC50 goes with higher potency.

ROCK1, sequence (Q13464 whole entry): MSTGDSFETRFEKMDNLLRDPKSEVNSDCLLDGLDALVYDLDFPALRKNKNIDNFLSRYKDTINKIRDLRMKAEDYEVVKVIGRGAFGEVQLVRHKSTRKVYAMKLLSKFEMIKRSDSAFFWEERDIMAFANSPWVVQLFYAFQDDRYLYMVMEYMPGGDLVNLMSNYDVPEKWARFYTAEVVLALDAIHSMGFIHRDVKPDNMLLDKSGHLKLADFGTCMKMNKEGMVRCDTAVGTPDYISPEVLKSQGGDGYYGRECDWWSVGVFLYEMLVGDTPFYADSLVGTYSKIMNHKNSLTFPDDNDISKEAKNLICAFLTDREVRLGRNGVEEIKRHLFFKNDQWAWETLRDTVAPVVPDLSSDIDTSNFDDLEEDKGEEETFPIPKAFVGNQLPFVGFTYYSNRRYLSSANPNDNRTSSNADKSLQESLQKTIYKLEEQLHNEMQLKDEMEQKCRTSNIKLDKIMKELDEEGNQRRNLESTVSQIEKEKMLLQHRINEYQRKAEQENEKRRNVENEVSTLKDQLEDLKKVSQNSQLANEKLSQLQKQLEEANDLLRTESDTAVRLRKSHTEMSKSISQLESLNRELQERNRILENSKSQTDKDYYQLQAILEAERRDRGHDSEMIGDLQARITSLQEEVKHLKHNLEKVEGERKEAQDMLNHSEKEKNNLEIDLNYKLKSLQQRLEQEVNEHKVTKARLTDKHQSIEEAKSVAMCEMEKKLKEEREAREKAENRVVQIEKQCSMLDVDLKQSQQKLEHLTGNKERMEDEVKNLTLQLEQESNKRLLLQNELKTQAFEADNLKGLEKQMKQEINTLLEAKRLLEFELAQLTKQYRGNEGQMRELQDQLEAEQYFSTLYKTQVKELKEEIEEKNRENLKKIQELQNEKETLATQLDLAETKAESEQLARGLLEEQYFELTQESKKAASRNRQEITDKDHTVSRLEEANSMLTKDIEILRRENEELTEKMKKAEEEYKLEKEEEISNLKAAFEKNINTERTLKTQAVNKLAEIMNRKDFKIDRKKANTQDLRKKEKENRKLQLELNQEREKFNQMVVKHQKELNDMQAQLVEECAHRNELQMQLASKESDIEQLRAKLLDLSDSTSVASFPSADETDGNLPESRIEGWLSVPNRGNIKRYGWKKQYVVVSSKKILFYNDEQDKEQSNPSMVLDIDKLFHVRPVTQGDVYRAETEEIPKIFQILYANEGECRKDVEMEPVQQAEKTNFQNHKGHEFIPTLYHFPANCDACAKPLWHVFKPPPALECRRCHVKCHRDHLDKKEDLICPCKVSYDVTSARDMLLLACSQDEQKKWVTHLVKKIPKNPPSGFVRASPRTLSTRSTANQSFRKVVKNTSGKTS
ROCK2, sequence (O75116 whole entry): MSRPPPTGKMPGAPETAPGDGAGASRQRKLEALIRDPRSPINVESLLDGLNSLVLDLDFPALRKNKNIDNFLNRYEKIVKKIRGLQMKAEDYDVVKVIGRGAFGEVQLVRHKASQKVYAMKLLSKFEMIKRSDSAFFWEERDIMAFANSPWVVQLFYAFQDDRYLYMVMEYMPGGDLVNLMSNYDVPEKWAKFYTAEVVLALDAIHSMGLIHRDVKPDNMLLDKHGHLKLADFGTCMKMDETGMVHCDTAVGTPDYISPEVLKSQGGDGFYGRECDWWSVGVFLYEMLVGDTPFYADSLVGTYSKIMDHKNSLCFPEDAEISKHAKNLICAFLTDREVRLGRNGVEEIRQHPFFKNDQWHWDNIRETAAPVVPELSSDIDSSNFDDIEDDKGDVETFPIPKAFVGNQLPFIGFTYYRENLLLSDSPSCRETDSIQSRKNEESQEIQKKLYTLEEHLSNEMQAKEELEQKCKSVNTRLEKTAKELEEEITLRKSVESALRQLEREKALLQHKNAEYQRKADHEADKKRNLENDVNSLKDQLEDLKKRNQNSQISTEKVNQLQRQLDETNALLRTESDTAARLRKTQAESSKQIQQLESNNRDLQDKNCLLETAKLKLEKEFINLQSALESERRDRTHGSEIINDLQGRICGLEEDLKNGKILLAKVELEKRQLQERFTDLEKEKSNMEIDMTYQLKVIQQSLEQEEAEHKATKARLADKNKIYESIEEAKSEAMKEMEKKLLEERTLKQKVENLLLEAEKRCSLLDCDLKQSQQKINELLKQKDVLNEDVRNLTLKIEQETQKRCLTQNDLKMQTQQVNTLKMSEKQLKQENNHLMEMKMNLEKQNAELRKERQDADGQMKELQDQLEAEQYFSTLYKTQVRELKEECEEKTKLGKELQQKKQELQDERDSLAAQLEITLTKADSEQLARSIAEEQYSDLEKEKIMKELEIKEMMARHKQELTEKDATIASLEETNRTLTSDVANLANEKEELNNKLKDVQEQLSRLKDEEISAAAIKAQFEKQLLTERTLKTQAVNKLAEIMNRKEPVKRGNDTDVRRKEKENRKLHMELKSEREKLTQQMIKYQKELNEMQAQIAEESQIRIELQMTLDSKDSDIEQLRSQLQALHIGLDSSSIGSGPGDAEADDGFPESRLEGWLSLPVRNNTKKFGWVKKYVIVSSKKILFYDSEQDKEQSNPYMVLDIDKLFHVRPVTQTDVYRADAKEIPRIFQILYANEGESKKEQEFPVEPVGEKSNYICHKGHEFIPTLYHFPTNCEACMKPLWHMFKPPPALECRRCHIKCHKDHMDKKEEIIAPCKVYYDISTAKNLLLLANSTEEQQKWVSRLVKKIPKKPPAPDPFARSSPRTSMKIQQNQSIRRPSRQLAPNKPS

One experiment addresses ROCK1 (Homo sapiens (Human), UniProt Q13464). In words: In vitro inhibitory activity against ROCK protein kinase (33P-ATP filter-binding), ROCK1. The class given is biochemical. The settings on record: 1 nM ROCK protein kinase, 20 μM Long S6 Kinase substrate peptide. The method, then:
(§1) 1. In Vitro Evaluation of the Inhibitory Activity Against ROCK Protein Kinase
(§2) Experimental purpose: to detect the inhibitory IC50 value of the compound against ROCK protein kinase.
(§3) Assay buffer solution: 20 mM 4-hydroxyethylpiperazine ethanesulfonic acid (pH 7.5), 10 mM magnesium chloride, 1 mM ethylene glycol-bis-(2-aminoethyl)tetraacetic acid, 0.02% polyethylene glycol monododecyl ether, 0.02 mg/mL bovine serum albumin, 0.1 mM sodium vanadate, 2 mM dithiothreitol, 1% DMSO.
(§4) The freshly prepared buffer solution was added to ROCK protein kinase substrate (Long S6 Kinase substrate peptide), at a concentration of 20 μM, then 1 nM ROCK protein kinase was added thereto and stirred evenly. Echo550 was used to add a series of DMSO dilutions containing the test compound (starting from 10 μM, serially diluted by 3 times), the solution was pre-incubated at room temperature for 20 minutes, then ^33P-ATP (radiation intensity 10 μCi/μL) was added to initiate the reaction, and the reaction was performed at room temperature for two hours. Then the solution was filtered by P81 ion exchange paper (Whatman #3698-915) and washed with 0.75% phosphoric acid. The radiation intensity was determined by Filter-Binding method.
(§5) The protein kinase inhibitory activity of the compound was expressed as the remaining protein kinase activity relative to the blank substrate (simply DMSO). Prism software package (GraphPad Software, San Diego Calif., USA) was used to calculate IC50 value and the curve.
Turning to `COc1cccc(C(CN)NC(=O)c2cc(-c3ccc4[nH]nc(C)c4c3)cc3cccnc23)c1` (centres unmarked) [Compound 34], the IC50 worked out at 1430 nM. As for `COc1cccc(C(CN2CCCC2)NC(=O)c2cccc(-c3ccc4[nH]nc(C)c4c3)c2)c1` (centres unmarked) [Compound 37], the IC50 was 290 nM.

The compound `COc1cccc(C(CNC(C)C)NC(=O)c2cccc(-c3ccc4[nH]nc(C)c4c3)c2)c1` (centres unmarked) [Compound 38] came in with an IC50 of 75 nM. The same measure, in the same setting: with `COc1cccc(C(CN)NC(=O)c2cc(CN3CCCC3)cc(-c3ccc4[nH]nc(C)c4c3)c2)c1` (centres unmarked) [Compound 39] the figure was 429 nM; with `Cc1n[nH]c2ccc(-c3cccc(C(=O)NC(CN)c4cccc(Cl)c4)c3)cc12` (centres unmarked) [Compound 43], 153 nM; with `COc1cccc(C2(NC(=O)c3cccc(-c4ccc5[nH]nc(C)c5c4)c3)CCNC2)c1` (centres unmarked) [Compound 44], 106 nM. The same measure, in the same setting: in the case of `COc1cccc(C2(NC(=O)c3cccc(-c4ccc5[nH]nc(F)c5c4)c3)CCNC2)c1` (centres unmarked) [Compound 45] it was 1270 nM; in that of `COc1cccc(C2(NC(=O)c3cc(-c4ccc5[nH]nc(C)c5c4)ccn3)CCNC2)c1` (centres unmarked) [Compound 46], 267 nM; in that of `COc1cccc(C(CN)NC(=O)c2cc(-c3ccc4[nH]nc(C)c4c3)ccc2OC(F)F)c1` (centres unmarked) [Compound 47], 67 nM. The same measure, in the same setting: in the case of `COc1cccc(C(CN)NC(=O)c2cc(-c3ccc4[nH]nc(F)c4c3)ccc2OC(F)F)c1` (centres unmarked) [Compound 48] it was 84 nM. On to `COc1cccc(C(CN)NC(=O)c2cc(-c3ccc4[nH]nc(C)c4c3)ccc2OC)c1` (centres unmarked) [Compound 50], for which the IC50 is 56 nM. This IC50 is about 1.5-fold lower than that of the compound before. `COc1cccc(C(CN)NC(=O)c2cc(-c3ccc4[nH]nc(F)c4c3)ccc2OC)c1` (centres unmarked) [Compound 51] registered an IC50 of 50 nM. Still for that read-out and setting: in the case of `COc1cc(C(=O)NC(CN)c2cccc(OC)c2)cc(-c2ccc3[nH]nc(C)c3c2)c1` (centres unmarked) [Compound 52] it was 182 nM. The same measure, in the same setting: in the case of `COc1cc(C(=O)NC(CN)c2cccc(OC)c2)cc(-c2ccc3[nH]nc(F)c3c2)c1` (centres unmarked) [Compound 53] it was 1090 nM; in that of `COc1cccc(C(CN)NC(=O)c2cccc(-c3ccc4[nH]nc(F)c4c3)c2)c1` (centres unmarked) [Compound 54], 180 nM. Still for that read-out and setting: with `COc1cccc(C(CN2CCNCC2)NC(=O)c2cccc(-c3ccc4[nH]nc(F)c4c3)c2)c1` (centres unmarked) [Compound 55] the figure was 4120 nM. In turn, `COc1cccc(C(CN2CCNCC2)NC(=O)c2cccc(-c3ccc4[nH]nc(C)c4c3)c2)c1` (centres unmarked) [Compound 56] had an IC50 of 2300 nM.

The next experiment deals with ROCK2 (Homo sapiens (Human), UniProt O75116). Description: In vitro inhibitory activity against ROCK protein kinase (33P-ATP filter-binding), ROCK2. The format is biochemical. The settings on record: 1 nM ROCK protein kinase, 20 μM Long S6 Kinase substrate peptide. The method, then:
as §1, §2, §3, §4, §5
As to `O=C(NC(CO)c1cc(F)cc(F)c1)c1cccc(-c2ccc3[nH]ncc3c2)c1` (centres unmarked) [Compound 17], the IC50 is 23 nM. In other words, the double-digit nanomolar range. On the same count and under the same terms, in the case of `O=C(NC(CO)c1ccc(F)c(F)c1)c1cccc(-c2ccc3[nH]ncc3c2)c1` (centres unmarked) [Compound 18] it was 29 nM.

Take `COc1cccc(CNC(=O)c2cccc(-c3ccc4[nH]ncc4c3)c2)c1` [Compound 21]: the IC50 was 3 nM. Still for that read-out and setting: with `COc1cccc(C(CN)NC(=O)c2cc(-c3ccc4[nH]nc(C)c4c3)cc3c2CNC3)c1` (centres unmarked) [Compound 33] the figure was 16 nM.

Take `COc1cccc(C(CN)NC(=O)c2cc(-c3ccc4[nH]nc(C)c4c3)cc3cccnc23)c1` (centres unmarked) [Compound 34]: the IC50 stood at 17 nM.

The compound `COc1cccc(C(CN2CCCC2)NC(=O)c2cccc(-c3ccc4[nH]nc(C)c4c3)c2)c1` (centres unmarked) [Compound 37] returned an IC50 of 7 nM.

Turning to `COc1cccc(C(CNC(C)C)NC(=O)c2cccc(-c3ccc4[nH]nc(C)c4c3)c2)c1` (centres unmarked) [Compound 38], the IC50 came to 14 nM.

Compound `COc1cccc(C(CN)NC(=O)c2cc(CN3CCCC3)cc(-c3ccc4[nH]nc(C)c4c3)c2)c1` (centres unmarked) [Compound 39] gave an IC50 of 15 nM.

Regarding `NCC(NC(=O)c1cccc(-c2ccc3[nH]nc(F)c3c2)c1)c1cccc(F)c1` (centres unmarked) [Compound 41], the IC50 worked out at 21 nM. On the same count and under the same terms, in the case of `Cc1n[nH]c2ccc(-c3cccc(C(=O)NC(CN)c4cccc(F)c4)c3)cc12` (centres unmarked) [Compound 42] it was 4 nM; in that of `Cc1n[nH]c2ccc(-c3cccc(C(=O)NC(CN)c4cccc(Cl)c4)c3)cc12` (centres unmarked) [Compound 43], 6 nM; in that of `COc1cccc(C2(NC(=O)c3cccc(-c4ccc5[nH]nc(C)c5c4)c3)CCNC2)c1` (centres unmarked) [Compound 44], 4 nM. Same read-out and setting: with `COc1cccc(C2(NC(=O)c3cccc(-c4ccc5[nH]nc(F)c5c4)c3)CCNC2)c1` (centres unmarked) [Compound 45] the figure was 19 nM; with `COc1cccc(C2(NC(=O)c3cc(-c4ccc5[nH]nc(C)c5c4)ccn3)CCNC2)c1` (centres unmarked) [Compound 46], 8 nM; with `COc1cccc(C(CN)NC(=O)c2cc(-c3ccc4[nH]nc(C)c4c3)ccc2OC(F)F)c1` (centres unmarked) [Compound 47], 12 nM. Same read-out and setting: in the case of `COc1cccc(C(CN)NC(=O)c2cc(-c3ccc4[nH]nc(F)c4c3)ccc2OC(F)F)c1` (centres unmarked) [Compound 48] it was 9 nM; in that of `COc1cccc(C(CN)NC(=O)c2cc(-c3ccc4[nH]nc(C)c4c3)ccc2OC)c1` (centres unmarked) [Compound 50], 5 nM; in that of `COc1cccc(C(CN)NC(=O)c2cc(-c3ccc4[nH]nc(F)c4c3)ccc2OC)c1` (centres unmarked) [Compound 51], 7 nM. `COc1cc(C(=O)NC(CN)c2cccc(OC)c2)cc(-c2ccc3[nH]nc(C)c3c2)c1` (centres unmarked) [Compound 52] showed an IC50 of 10 nM. This IC50 and that of the compound before are within 1.5-fold of each other.

Take `COc1cc(C(=O)NC(CN)c2cccc(OC)c2)cc(-c2ccc3[nH]nc(F)c3c2)c1` (centres unmarked) [Compound 53]: the half-inhibitory concentration (IC50) turned out to be 20 nM. Still for that read-out and setting: with `COc1cccc(C(CN)NC(=O)c2cccc(-c3ccc4[nH]nc(F)c4c3)c2)c1` (centres unmarked) [Compound 54] the figure was 21 nM. `COc1cccc(C(CN2CCNCC2)NC(=O)c2cccc(-c3ccc4[nH]nc(F)c4c3)c2)c1` (centres unmarked) [Compound 55]: the IC50 came out at 51 nM. For `COc1cccc(C(CN2CCNCC2)NC(=O)c2cccc(-c3ccc4[nH]nc(C)c4c3)c2)c1` (centres unmarked) [Compound 56], the IC50 was 44 nM. This IC50 and that of the compound before are within 1.5-fold of each other. Still for that read-out and setting: in the case of `Cc1n[nH]c2ccc(-c3cccc(C(=O)NC(CN)c4cccc(OC5CC5)c4)c3)cc12` (centres unmarked) [Compound 63] it was 35 nM; in that of `COc1cccc(C(CN)NC(=O)c2cccc(-c3ccc4[nH]nc(C5CC5)c4c3)c2)c1` (centres unmarked) [Compound 68], 8 nM. Same read-out and setting: in the case of `COc1cccc(C(CN)NC(=O)c2cc(-c3ccc4[nH]nc(C)c4c3)ncn2)c1` (centres unmarked) [Compound 69] it was 12 nM.

On to `COc1cccc(C(CNC(C)C)NC(=O)c2cc(-c3ccc4[nH]nc(C)c4c3)ccn2)c1` (centres unmarked) [Compound 70], for which the IC50 was found to be 24 nM.
